Experimental data taken from the supplement of paper PMC10307832.

Experiments:
Experiment in all cases: relative viability (nuclei count vs DMSO), 5 days (fraction); higher = more cells survive
Midostaurin + Crizotinib = compound: CO[C@@H]1[C@H](N(C)C(=O)c2ccccc2)C[C@H]2O[C@]1(C)n1c3ccccc3c3c4c(c5c6ccccc6n2c5c31)C(=O)NC4 [Midostaurin] + C[C@@H](Oc1cc(-c2cnn(C3CCNCC3)c2)cnc1N)c1c(Cl)ccc(F)c1Cl [Crizotinib] (partner 1 µM)
Outline: (§1)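 Lung cancer cell lines, seeded in 1536-well plates, were treated the following day by pin tool with a single drug or with five library-drug doses (not always all listed) in √10 steps on top of a fixed anchor-drug dose. Cells were fixed and nuclei stained in one step after 5 days, and nuclei were counted. Relative viability is the nuclei count for treated wells divided by that for vehicle wells, reported as medians of duplicate plates.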

[1] = compound: COc1cc(-c2nn([C@H]3CC[C@H](N4CCN(C(C)=O)CC4)CC3)c3ncnc(N)c23)ccc1NC(=O)c1cc2ccccc2n1C + O=C(CCCCCCC(=O)Nc1ccccc1)NO [Vorinostat] (partner 1 µM)
Outline: as §1

[2] = compound: COc1cc(-c2nn([C@H]3CC[C@H](N4CCN(C(C)=O)CC4)CC3)c3ncnc(N)c23)ccc1NC(=O)c1cc2ccccc2n1C + Cc1cc(Nc2cc(N3CCN(C)CC3)nc(Sc3ccc(NC(=O)C4CC4)cc3)n2)n[nH]1 [Tozasertib] (partner 0.1 µM)
Outline: as §1

Midostaurin + Decitabine = compound: CO[C@@H]1[C@H](N(C)C(=O)c2ccccc2)C[C@H]2O[C@]1(C)n1c3ccccc3c3c4c(c5c6ccccc6n2c5c31)C(=O)NC4 [Midostaurin] + Nc1ncn([C@H]2C[C@H](O)[C@@H](CO)O2)c(=O)n1 [Decitabine] (partner 2 µM)
Outline: as §1

[3] = compound: COc1cc(-c2nn([C@H]3CC[C@H](N4CCN(C(C)=O)CC4)CC3)c3ncnc(N)c23)ccc1NC(=O)c1cc2ccccc2n1C + CC(C)C[C@H](NC(=O)[C@H](Cc1ccccc1)NC(=O)c1cnccn1)B(O)O [Bortezomib] (partner 0.002 µM)
Outline: as §1

Cell Line	relative viability (Midostaurin + Crizotinib; first compound 0.01 µM)	relative viability (Midostaurin + Crizotinib; first compound 0.03162 µM)	relative viability (Midostaurin + Crizotinib; first compound 0.1 µM)	relative viability (Midostaurin + Crizotinib; first compound 0.3162 µM)	relative viability ([1]; first compound 0.0128 µM)	relative viability ([1]; first compound 0.128 µM)	relative viability ([1]; first compound 1.28 µM)	relative viability ([2]; first compound 0.0128 µM)	relative viability ([2]; first compound 0.04048 µM)	relative viability ([2]; first compound 0.128 µM)	relative viability ([2]; first compound 1.28 µM)	relative viability (Midostaurin + Decitabine; first compound 0.01 µM)	relative viability (Midostaurin + Decitabine; first compound 0.03162 µM)	relative viability (Midostaurin + Decitabine; first compound 0.1 µM)	relative viability (Midostaurin + Decitabine; first compound 0.3162 µM)	relative viability ([3]; first compound 0.0128 µM)	relative viability ([3]; first compound 0.128 µM)	relative viability ([3]; first compound 1.28 µM)	relative viability ([1]; first compound 0.04048 µM)	relative viability ([3]; first compound 0.04048 µM)
NCI-H3122	0.286	0.258	0.3	0.331	1.49	0.889	0.861	0.396	0.342	0.343	0.454	0.394	0.395	0.531	0.551	1.14	1.01	0.788	–	–
NCI-H460	0.903	0.75	0.898	0.787	0.735	0.642	0.709	0.47	0.113	0.278	0.0922	0.491	0.526	0.53	0.638	1.14	1.09	0.99	0.983	1.26
NCI-H650	0.574	0.748	0.773	0.444	0.633	0.443	0.517	0.663	0.747	0.735	0.732	0.339	0.311	0.321	0.334	1.17	0.848	0.867	0.709	1.23
NCI-H661	0.931	0.928	0.918	0.982	0.761	0.819	1.01	0.362	0.381	0.346	0.34	0.622	0.611	0.598	0.596	0.879	0.709	0.384	0.971	0.823
NCI-H1734	0.653	0.691	0.705	0.647	0.873	0.783	0.852	0.293	0.234	0.253	0.201	0.508	0.499	0.486	0.521	0.995	1.1	0.756	0.787	0.862
LXF-289	0.815	0.78	0.764	0.831	0.898	0.734	0.794	0.219	0.217	0.17	0.0946	0.394	0.339	0.342	0.401	1.07	1	1.18	0.795	0.963
H3255	0.829	0.718	0.937	0.892	1.01	0.824	0.708	0.829	0.591	0.571	0.581	0.6	0.557	0.615	0.524	0.92	0.721	0.779	0.725	0.765
201T	1.07	1.01	1.01	1.05	1.01	0.909	0.654	1	0.949	0.854	0.523	0.878	0.91	0.83	0.867	1.14	1.06	1.03	1.1	1.16
NCI-H2126	1.02	0.951	0.965	1.04	0.92	0.658	0.636	0.833	0.946	0.773	0.638	0.549	0.644	0.612	0.613	1.17	1.06	1.03	0.621	1.17
HOP-62	0.846	0.624	0.988	1.15	1.01	0.601	0.585	0.382	0.41	0.346	0.368	0.203	0.25	0.246	0.227	0.845	0.992	0.621	0.546	0.883
NCI-H520	0.69	0.668	0.691	0.525	0.738	0.6	0.543	0.378	0.432	0.412	0.31	0.498	0.501	0.514	0.427	0.741	0.358	0.334	0.652	0.624
NCI-H1755	0.808	0.805	0.761	0.484	1	0.721	0.951	0.617	0.604	0.534	0.546	0.778	0.684	0.715	0.739	1.06	1.03	0.86	0.945	0.993
NCI-H2023	0.642	0.613	0.584	0.499	0.821	0.646	0.695	0.381	0.309	0.179	0.199	0.226	0.273	0.223	0.201	0.977	0.897	0.905	0.631	1.11
NCI-H2009	1.07	0.98	0.996	1.06	0.711	0.78	0.751	0.743	0.734	0.681	0.606	0.426	0.353	0.351	0.361	1.14	1.06	0.962	0.702	0.555
